Publication PMC8486167, “Orally Active Peptide Vector Allows Using Cannabis to Fight Pain While Avoiding Side Effects” (Journal of Medicinal Chemistry, 2021)
Square brackets hold non-standard residues; d marks the D form. Ends that are not written are not given here. Peptide text beside a SMILES is read from it.

Tests used:
[1] = test system: bEnd.3 brain endothelial cells; details: 5(6)-carboxyfluorescein-labeled peptides; bEnd.3 cells; fluorescence in basolateral chamber after 24 h; n = 3–6
Procedure: bEnd.3 brain endothelial cells (ATCC CRL-2299TM) were grown as a monolayer in DMEM supplemented with 10% FBS and 1% penicillin/streptomycin solution (Gibco, USA). Cells were cultured in a humidified atmosphere of 95% air and 5% CO2 at 37 °C (MCO-18AIC (UV), Sanyo, Japan), with daily medium replacement.
The translocation capabilities of 5(6)-carboxyfluorescein-labeled peptides were determined using a protocol previously described.[30],[31] After the experiment, the integrity of the endothelial barrier was checked by measuring the permeability of a 4 kDa fluorescently labeled dextran (FD4) as previously described.[25] Experiments were carried out on different days using independently grown cell cultures.

trypsin = details: 24 h vs 0 h, HPLC main peak area, mean ± SEM, n = 2
Procedure: Peptide samples, incubated with trypsin, were collected and analyzed as before.[60] For human serum digestion, peptide [1000 μM, 2% dimethyl sulfoxide (DMSO) in filtered H2O] was added to human serum (Sigma, St Louis, Missouri) in a 1:1 ratio and incubated at 37 °C with gentle shaking. At 0 min and 24 h, aliquots were taken and proteolysis was stopped with CH3CN (80% in filtered H2O), chilled at 0 °C for 15 min to precipitate serum proteins, and centrifuged at 13,000 rpm at 4 °C for 10 min. The supernatant was collected and analyzed by analytical RP-HPLC and LC–MS as described before,[60] with a 0–95% linear gradient of CH3CN over 15 min. All experiments are performed in duplicate and data were fitted with GraphPad Prism.

mice [2] = assay: Immunogenicity: mice immunization and serum ELISA; assay type: in vivo, mouse; details: CD-1 mice, IV, 5 consecutive days and boost at day 15; 17 at 100 μg/dose, 17-KLH at 30 μg; sera days 0, 9, 19; plates coated with 17-BSA
Procedure: Experiments were performed at the ICTS “NANBIOSIS” Custom Antibody Service (CAbS, CIBER-BBN, IQAC-CSIC). The immune response to 17 was assessed in outbred Swiss ICR (CD-1) mice strain Hsd:ICR (CD-1) (Envigo RMS, The Netherlands), following the immunization schedule in Figure 7. Animals were housed under standard conditions in the CID-CSIC animal facility. Animal experimental procedures were conducted in accordance with protocols approved by CSIC Committee on Ethics of Animal Experiments and Biosafety, as well as the Spanish National Committee on Ethics and Animal Welfare. Briefly, a first group of 10 female mice received IV doses of 17 (200 μL, 20 mg/kg, PBS + 2% DMSO), a second group of 5 mice received IV doses of 17-KLH conjugate (200 μL, 30 μg) and a third group of 5 mice received IVdoses of PBS (200 μL, negative control). The 17-KLH conjugate, administered with Freund’s adjuvant, was also used to generate polyclonal antibody (positive control) (data not shown). Serum samples were collected by tail vein bleeds on days 0, 9, and 19. […] The peptide-specific humoral response was determined by indirect ELISA. […] Color development was stopped with 4 N H2SO4 (50 μL/well) after 30 min at r.t., and absorbance read at 450 nm. Titers in a log10 scale were expressed as the reciprocal of the last dilution giving the absorbance recorded in the control wells (serum at day 0) plus 2 SD.

CB1R–5HT2AR heteromer [3] = molecular target: T1, CB1R–5HT2AR heteromer (Homo sapiens, UniProt P28223); assay: cAMP production (HTRF), decrease in FK-induced cAMP; assay type: cell-based; details: for FK-induced cAMP production after agonist: agonist 100 nM, all groups
T1 construct: expressed in transfected cells; host or cells: HEK-293T / HEK-293
T1 sequence (P28223 whole entry, one chain of several): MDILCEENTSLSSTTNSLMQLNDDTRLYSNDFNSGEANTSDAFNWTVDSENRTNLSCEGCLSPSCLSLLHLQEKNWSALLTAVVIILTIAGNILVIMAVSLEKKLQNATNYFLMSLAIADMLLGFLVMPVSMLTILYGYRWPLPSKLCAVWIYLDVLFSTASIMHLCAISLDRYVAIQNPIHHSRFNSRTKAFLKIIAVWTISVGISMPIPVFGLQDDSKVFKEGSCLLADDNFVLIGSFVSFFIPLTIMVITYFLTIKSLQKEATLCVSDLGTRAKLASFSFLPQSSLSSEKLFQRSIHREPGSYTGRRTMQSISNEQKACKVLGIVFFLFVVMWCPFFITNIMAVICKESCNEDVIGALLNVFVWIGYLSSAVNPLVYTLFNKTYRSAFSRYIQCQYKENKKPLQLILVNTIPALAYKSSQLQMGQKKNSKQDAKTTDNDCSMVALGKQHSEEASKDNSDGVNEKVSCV
Procedure: Sequences encoding YFP Venus protein amino acid residues 1–155 and 156–238 were subcloned in the pcDNA3.1 vector to obtain the YFP Venus hemitruncated proteins. The human cDNAs for 5HT2AR and CB1R, cloned into the pcDNA3.1, were amplified and subcloned as described[18] to give 5HT2AR-cYFP and CB1R-nYFP. Human embryonic kidney (HEK-293T) cells obtained from ATCC were grown in Dulbecco’s modified Eagle’s medium (DMEM) (Gibco) supplemented with 2 mM L-glutamine, 100 μg/mL sodium pyruvate, 100 U/mL penicillin/streptomycin, MEM nonessential amino acid solution (1/100), and 5% (v/v) heat-inactivated fetal bovine serum (FBS) (all supplements from Invitrogen, Paisley, Scotland, UK). Cells were maintained at 37 °C in an atmosphere of 5% CO2. HEK-293T cells were transfected with the corresponding fusion protein cDNA by the polyethylenimine (Sigma) method, as described before.[18]
For cAMP production, homogeneous time-resolved fluorescence energy transfer (HTRF) assays were performed as previously described.[18] […] Fluorescence at 665 nm was analyzed on a PHERAstar Flagship microplate reader equipped with an HTRF optical module (BMG Lab technologies, Offenburg, Germany).

mice [4] = assay: Hot-plate test (THC-induced analgesia); details: mouse; THC 10 mg/kg IP
mice [5] = assay: Novel object recognition test (THC memory impairment); assay type: in vivo; details: mouse; THC 3 mg/kg IP
Procedure: On day 1 (Habituation), mice were habituated for 9 min to the V-maze in which the task was performed. The following day (Training), mice were placed in the V-maze for 9 min, two identical objects were presented and the time that the mice spent exploring each object was recorded. Mice were again placed in the maze 24 h later for 9 min (Test), one of the familiar objects was replaced with a novel object and the total time spent exploring each of the two objects (novel and familiar) was recorded. Object exploration was defined as the orientation of the nose to the object at less than 2 cm. A discrimination index was calculated as the difference between the time spent exploring the novel or familiar object divided by the total time exploring the two objects. A higher discrimination index is considered to reflect greater memory retention for the familiar object.
Thirty min after peptide administration, mice received an IP injection of vehicle (5% v/v of ethanol, 5% v/v of Cremophor-EL, and 90% v/v saline) or 3 mg/kg of THC dissolved in vehicle.

CB1R–5HT2AR heteromer [6] = molecular target: T1, CB1R–5HT2AR heteromer; assay: ERK-1/2 phosphorylation assay (α-screen); assay type: cell-based
Procedure: Phosphorylation was determined in white ProxiPlate 384-well microplates (PerkinElmer Life Sciences) by the α-screen bead-based technology using the amplified luminescent proximity homogeneous assay kit (PerkinElmer Life Sciences) and using the Enspire multimode plate reader (PerkinElmer Life Sciences). Phosphorylation is expressed in arbitrary units, ALPHAcounts, as measured by light emission at 520–620 nm of the acceptor beads.

[7] = RIM 1 μM vs DOI 100 nM, MDL 300 nM vs WIN 100 nM, no peptide

CC[C@@H](C)[C@@H](NC(=O)CNC(=O)[C@@H](C)NC(=O)[C@H](Cc1c[nH]c2ccccc12)NC(=O)[C@H](CC(C)C)NC(=O)[C@@H](NC(=O)[C@H](Cc1ccc(O)cc1)NC(=O)[C@H](CCSC)NC(=O)[C@H](Cc1ccc(O)cc1)NC(=O)[C@H](C)NC(=O)[C@H](Cc1ccc(O)cc1)NC(=O)[C@@H](N)C(C)C)[C@@H](C)CC)C(=O)N[C@H](CC(C)C)C(=O)N[C@H](CCCCN)C(=O)N[C@H](CCCNC(=N)N)C(=O)N[C@H](Cc1c[nH]c2ccccc12)C(N)=O [compound 13] (H-VYAYMYILW[dA]G[dI][dL][dK][dR][dW]-NH2)
translocation across the transwell BBB model [1]: translocated more efficiently than 14 and 16

SKSKSKKTLVLILVV-NH2 [compound 10]
proteolytic stability: unaltered peptide remaining after trypsin incubation (trypsin): poor survival

CC[C@@H](C)[C@@H](NC(=O)CNC(=O)[C@@H](C)NC(=O)[C@H](NC(=O)[C@@H](Cc1ccc(O)cc1)NC(=O)[C@@H](C)NC(=O)[C@@H](Cc1ccc(O)cc1)NC(=O)[C@@H](CCSC)NC(=O)[C@@H](Cc1ccc(O)cc1)NC(=O)[C@H](NC(=O)[C@@H](CC(C)C)NC(=O)[C@H](N)Cc1c[nH]c2ccccc12)[C@H](C)CC)C(C)C)C(=O)N[C@H](CC(C)C)C(=O)N[C@H](CCCCN)C(=O)N[C@H](CCCNC(=N)N)C(=O)N[C@H](Cc1c[nH]c2ccccc12)C(N)=O [compound 17] (H-[dW][dL][dI][dY][dM][dY][dA][dY][dV][dA]G[dI][dL][dK][dR][dW]-NH2)
immunogenicity: peptide-specific antibody response (ELISA titers) (mice [2]): did not evoke any detectable immune response

COc1cc(CC(C)N)c(OC)cc1I (stereo not shown) [DOI, 2,5-dimethoxy-4-iodoamphetamine]
FK-induced cAMP production after agonist (CB1R–5HT2AR heteromer [3]; 0.5 μM FK): reduced cAMP production

CCCCCc1cc(O)c2c(c1)OC(C)(C)[C@@H]1CCC(C)=C[C@@H]21 [THC, Δ^9-tetrahydrocannabinol]
THC effect in hot-plate test (mice [4]): analgesic effects
THC effect in novel object recognition test (mice [5]): memory impairment

LIKTVFAFCSMLCLLNSTVNPIIYALRGRKKRRQRRR [TM7-Tat, peptide TM7-Tat, used as a negative control]
elimination of bidirectional cross-antagonism (pERK) (CB1R–5HT2AR heteromer [6]; DOI 100 nM, WIN 100 nM, MDL 300 nM, RIM 1 μM, % of basal, n = 4–9): not observed with TM7-Tat
elimination of bidirectional cross-antagonism (FK-induced cAMP) (CB1R–5HT2AR heteromer [3]; DOI 100 nM, WIN 100 nM, MDL 300 nM, RIM 1 μM, 0.5 μM FK, n = 3–6): not observed with TM7-Tat
influence on G protein coupling preference of 5HT2AR (CB1R–5HT2AR heteromer [3]; FK-induced cAMP, 0.5 μM FK, WIN 100 nM or DOI 100 nM, transfected HEK-293T cells, n = 3–6): 5HT2AR remains Gi-coupled in the presence of interfering peptides

Cc1c(C(=O)c2cccc3ccccc23)c2cccc3c2n1[C@H](CN1CCOCC1)CO3 [WIN, WIN 55,212-2]
FK-induced cAMP production after agonist (CB1R–5HT2AR heteromer [3]; 0.5 μM FK): reduced cAMP production

AGILKRWKTLVLILVV-NH2 [compound 9]
proteolytic stability: unaltered peptide remaining after trypsin incubation (trypsin): poor survival

VYAYMYILWSKSKSK-NH2 [compound 6]
proteolytic stability: unaltered peptide remaining after trypsin incubation (trypsin): poor survival

VYAYMYILWAGILKRW-NH2 [compound 5]
proteolytic stability: unaltered peptide remaining after trypsin incubation (trypsin): poor survival

CC[C@@H](C)[C@@H](NC(=O)CNC(=O)[C@@H](C)N)C(=O)N[C@H](CC(C)C)C(=O)N[C@H](CCCCN)C(=O)N[C@H](CCCNC(=N)N)C(=O)N[C@H](Cc1c[nH]c2ccccc12)C(=O)N[C@@H](CCCCN)C(=O)N[C@H](C(=O)N[C@@H](CC(C)C)C(=O)N[C@H](C(=O)N[C@@H](CC(C)C)C(=O)N[C@H](C(=O)N[C@@H](CC(C)C)C(=O)N[C@H](C(=O)N[C@H](C(N)=O)C(C)C)C(C)C)[C@@H](C)CC)C(C)C)[C@@H](C)O [compound 15] (H-[dA]G[dI][dL][dK][dR][dW]KTLVLILVV-NH2)
translocation across the transwell BBB model [1]: translocated more efficiently than 14 and 16

Cc1c(C(=O)NN2CCCCC2)nn(-c2ccc(Cl)cc2Cl)c1-c1ccc(Cl)cc1 [RIM, rimonabant]
antagonist block of the partner receptor's agonist signal (cross-antagonism, pERK) (CB1R–5HT2AR heteromer [6]; [7]): blocked the decrease in FK-induced cAMP or the increase in pERK triggered by the 5HT2AR agonist DOI
antagonist block of the partner receptor's agonist signal (cross-antagonism, cAMP) (CB1R–5HT2AR heteromer [3]; [7]): blocked the decrease in FK-induced cAMP or the increase in pERK triggered by the 5HT2AR agonist DOI
